Measured values: ChEMBL document CHEMBL2057103, “Synthesis and biological activity of novel bifunctional isoxazolidinyl polycyclic aromatic hydrocarbons” (Bioorg Med Chem, 2012)
Activity calls are given as the source filed them. The rule behind the calls is not given here.

How the values were obtained:
Vero = assay: Cytotoxicity against african green monkey Vero cells after 20 hrs by MTS assay; type: cell-based; details: Chlorocebus sabaeus
MOLT-3 = assay: Cytotoxicity against human MOLT3 cells after 20 hrs by MTS assay; type: functional, cell-based; details: MOLT-3, 20 h
THP-1 = assay: Cytotoxicity against human THP1 cells after 20 hrs by MTS assay; type: functional, cell-based; details: THP-1, 20 h
HeLa = assay: Cytotoxicity against human HeLa cells after 20 hrs by MTS assay; type: functional, cell-based
U-937 = assay: Cytotoxicity against human U937 cells after 20 hrs by MTS assay; type: functional, cell-based; details: U-937, 20 h
A549 = assay: Cytotoxicity against human A549 cells after 20 hrs by SRB assay; type: functional, cell-based; details: A549, 20 h
Nucleic Acid [1] = assay: Binding affinity to Escherichia coli phiX174 RF1 DNA poly GC fragment assessed as DNA unwinding in presence of topoisomerase 1 after 30 mins by electrophoresis; type: nucleic-acid assay
Nucleic Acid [2] = assay: Binding affinity to Escherichia coli phiX174 RF1 DNA poly-d(G-C)2 fragment assessed as DNA unwinding in presence of topoisomerase 1 after 30 mins by electrophoresis; type: nucleic-acid assay

Compound | IC50 (Vero) [µM] | IC50 (MOLT-3) [µM] | IC50 (THP-1) [µM] | IC50 (HeLa) [µM] | IC50 (U-937) [µM] | IC50 (A549) [µM] | Activity (Nucleic Acid [1]) | Activity (Nucleic Acid [2])
OC[C@@H]1C[C@H](c2ccc3ccc4cccc5ccc2c3c45)N(Cc2ccccc2O)O1 (racemic) [listing 1 of 2 here] | 37 | 5 | 7 | 4 | 32 | 2 |  | 
OC[C@@H]1C[C@H](c2ccc3ccc4cccc5ccc2c3c45)N(Cc2ccccc2O)O1 (racemic) [listing 2 of 2 here] |  |  |  |  |  |  | Active | 
OC[C@@H]1C[C@H](c2ccc3ccc4cccc5ccc2c3c45)N(Cc2ccccc2O)O1 |  |  |  |  |  |  |  | Active
OC[C@H]1C[C@H](c2ccc3ccc4cccc5ccc2c3c45)N(Cc2ccccc2O)O1 (racemic) | 103 | 13 | 15 | 11 | 88 | 9 |  | 
